Assay results as given in patent US9597407B2, “Targeted antimicrobial moieties” (C3 Jian, Inc., priority 2009, dated 2017).
Entries after “also recorded” stand apart in the source; their conditions may differ. Ends that are not written are not given here.

Assays:
[1] = system: bacteria; assay: Binding of targeting peptides to microorganisms (Table 3); conditions: preferably 1x PBS; for Target(s) (microorganisms bound by the targeting peptide) / Target(s) (microorganism bound by the targeting peptide): peptide binding in aqueous buffers that varied depending on peptide solubility
[2] = system: microorganisms; assay: Morphology, biofilm and growth disruption by peptides (Table 5); type: cell-based; set-up: key: A: Peptide aggregates; B: Less hyphal formation; Clumps; Diffuse clumps and small polyps; F: Diffuse growth; H: Thin; I: Growth inhibition; Microcolony formation; Rippled; Small polyps; Thick; W: Halo formation on top, microlonies on bottom
Description: In certain embodiments peptides that induce alterations in phenotype or other biological activities can also be used as antimicrobial effector moieties.

[3] = microorganism the targeting peptide binds, binding in aqueous buffers that varied with peptide solubility
[4] = microorganism bound by the targeting peptide, binding in aqueous buffers chosen by peptide solubility

## ALDCSEQSVILWYETILDKIVGVIK [PF-028]
[1]; [3]
  Target(s): S. epidermidis and M. luteus and MRSA
[2]; C. jeikeium
  Organism, effect: C. jeikeium (M)
[2]; MRSA
  Organism, effect: MRSA (R)
[2]; S. epidermidis
  Organism, effect: S. epidermidis (M)

## CGKLLEQKNFFLKTR [PF-521]
[1]
  Target(s) (microorganisms bound by the targeting peptide): S. epidermidis; also recorded: E. coli; also recorded: P. aeruginosa; also recorded: S. pneumoniae; also recorded: E. faecalis
[2]; S. pneumoniae
  Organism, effect (morphology, biofilm and growth disruption): S. pneumoniae (H)

## DEIKVSDEEIEKFIKENNL [PF-597]
[1]
  Target(s) (microorganism bound by the targeting peptide): P. mirabilis
[2]; E. faecalis
  Organism, effect (morphology, biofilm and growth disruption): E. faecalis (A)

## FELVDWLETNLGKILKSKSA-NH2 [PF-522]
[1]
  Target(s) (microorganisms bound by the targeting peptide): S. epidermidis; also recorded: E. coli; also recorded: P. aeruginosa; also recorded: S. pneumoniae; also recorded: E. faecalis
[2]; S. pneumoniae
  Organism, effect (morphology, biofilm and growth disruption): S. pneumoniae (H)

## GNVHPESDFHNLIQFIKTFLYFTIFFKYFL [PF-C290]
[1]
  Target(s) (microorganism bound by the targeting peptide): A. naeslundii; also recorded: F. nucleatum; also recorded: P. gingivalis; also recorded: S. mutans; also recorded: T. denticola
[2]; S. mutans
  Organism, effect (morphology, biofilm and growth disruption): S. mutans (F)

## HCVIGNVVDIANLLKRRAVYRDIADVIKMR [PF-071]
[1]; [3]
  Target(s): S. epidermidis and E. coli and P. aeruginosa and C. albicans and MRSA
[2]; B. subtilis
  Organism, effect: B. subtilis (D)
[2]; C. albicans
  Organism, effect: C. albicans (B)
[2]; C. jejuni
  Organism, effect: C. jejuni (A)
[2]; M. luteus
  Organism, effect: M. luteus (R)
[2]; MRSA
  Organism, effect: MRSA (C)
[2]; S. epidermidis
  Organism, effect: S. epidermidis (R)
[2]; S. pneumoniae
  Organism, effect: S. pneumoniae (A)

## HKNKLNIPHIKS [PF-477]
[1]
  Target(s) (microorganisms bound by the targeting peptide): S. epidermidis; also recorded: M. luteus; also recorded: C. albicans; also recorded: S. pneumoniae; also recorded: C. jeikeium; also recorded: C. jejuni
[2]; S. pneumoniae
  Organism, effect (morphology, biofilm and growth disruption): S. pneumoniae (H)

## KKFKIFVIINWFYHKYIILNFEENF [PF-C085]
[1]
  Target(s) (microorganism bound by the targeting peptide): A. naeslundii; also recorded: F. nucleatum; also recorded: P. gingivalis; also recorded: S. mutans; also recorded: T. denticola
[2]; S. mutans
  Organism, effect (morphology, biofilm and growth disruption): S. mutans (F)

## LHVIRPRPELSELKFPITKILKVNKQGLKK [PF-752]
[1]
  Target(s) (microorganism bound by the targeting peptide): S. epidermidis and E. coli and MRSA and S. pneumoniae and E. faecalis
[2]; S. pneumoniae
  Organism, effect (morphology, biofilm and growth disruption): S. pneumoniae (C)

## LIQKGLNQTFIVVIRLNNFIKKS [PF-013]
[1]; [3]
  Target(s): M. luteus and P. mirabilis and E. coli and P. aeruginosa and MRSA and S. pneumoniae and C. jeikeium and C. jejuni
[2]; C. jeikeium
  Organism, effect: C. jeikeium (D)
[2]; M. luteus
  Organism, effect: M. luteus (D)
[2]; MRSA
  Organism, effect: MRSA (R)
[2]; S. epidermidis
  Organism, effect: S. epidermidis (C)

## LMFFSENMDKRDTLSGKFRYFAGSKVIKLMNWLSENGK [PF-226]
[1]; [4]
  Target(s): A. baumannii
[2]; M. luteus
  Organism, effect: M. luteus (T)
[2]; S. epidermidis
  Organism, effect: S. epidermidis (C)

## LNFRAENKILEKIHISLIDTVEGSA [PF-575]
[1]
  Target(s) (microorganisms bound by the targeting peptide): M. luteus and E. coli and C. albicans and MRSA and S. pneumoniae and E. faecalis and C. jeikeium
[2]; C. jeikeium
  Organism, effect (morphology, biofilm and growth disruption): C. jeikeium (A)
[2]; C. jejuni
  Organism, effect (morphology, biofilm and growth disruption): C. jejuni (R)
[2]; P. aeruginosa
  Organism, effect (morphology, biofilm and growth disruption): P. aeruginosa (A)
[2]; S. pneumoniae
  Organism, effect (morphology, biofilm and growth disruption): S. pneumoniae (A)

## LSEMERRRLRKRA-NH2 [PF-529]
[1]
  Target(s) (microorganisms bound by the targeting peptide): S. epidermidis and E. coli and C. albicans and MRSA and S. pneumoniae and E. faecalis and C. jeikeium
[2]; S. pneumoniae
  Organism, effect (morphology, biofilm and growth disruption): S. pneumoniae (H)

## LSLATFAKIFMTRSNWSLKRFNRL [PF-278]
[1]; [4]
  Target(s): M. luteus; also recorded: A. baumannii
[2]; C. albicans
  Organism, effect: C. albicans (B)
[2]; M. luteus
  Organism, effect: M. luteus (R)
[2]; S. epidermidis
  Organism, effect: S. epidermidis (I)

## LSPRPIIVSRRSRADNNNDWSR [PF-143]
[1]; [4]
  Target(s): S. epidermidis and MRSA and C. jeikeium
[2]; P. aeruginosa
  Organism, effect: P. aeruginosa (C)

## MGIIAGIIKFIKGLIEKFTGK [PF-006]
[1]; [3]
  Target(s): S. epidermidis and M. luteus and E. coli and P. aeruginosa and MRSA and E. faecalis and C. jeikeium and C. jejuni
[2]; B. subtilis
  Organism, effect: B. subtilis (I)
[2]; C. jejuni
  Organism, effect: C. jejuni (D)
[2]; M. luteus
  Organism, effect: M. luteus (A)
[2]; MRSA
  Organism, effect: MRSA (I)
[2]; S. epidermidis
  Organism, effect: S. epidermidis (D)
[2]; S. pneumoniae
  Organism, effect: S. pneumoniae (R)

## MIRIRSPTKKKLNRNSISDWKSNTSGRFFY [PF-283]
[1]; [4]
  Target(s): B. subtilis; also recorded: B. fragilis; also recorded: C. difficile
[2]; B. subtilis
  Organism, effect: B. subtilis (H)
[2]; S. epidermidis
  Organism, effect: S. epidermidis (H)

## MKRRRCNWCGKLFYLEEKSKEAYCCKECRKKAKKVKK [PF-307]
[1]; [4]
  Target(s): S. epidermidis; also recorded: B. subtilis; also recorded: B. fragilis; also recorded: C. difficile
[2]; B. subtilis
  Organism, effect: B. subtilis (H)
[2]; C. albicans
  Organism, effect: C. albicans (B)
[2]; S. epidermidis
  Organism, effect: S. epidermidis (T)

## MQIFYIKTKIFLSFFLFLLIFSQCFYKIEE [PF-442]
[1]
  Target(s) (microorganisms bound by the targeting peptide): S. epidermidis; also recorded: E. coli; also recorded: C. albicans; also recorded: S. pneumoniae; also recorded: E. faecalis
[2]; MRSA
  Organism, effect (morphology, biofilm and growth disruption): MRSA (M)
[2]; S. pneumoniae
  Organism, effect (morphology, biofilm and growth disruption): S. pneumoniae (C)

## NTNDLLQAFELMGLGMAGVFIVLGILYIVAELLIKIFPVNN [PF-C194]
[1]
  Target(s) (microorganism bound by the targeting peptide): A. naeslundii; also recorded: F. nucleatum; also recorded: P. gingivalis; also recorded: S. mutans; also recorded: T. denticola
[2]; F. nucleatum
  Organism, effect (morphology, biofilm and growth disruption): F. nucleatum (T)
[2]; P. gingivalis
  Organism, effect (morphology, biofilm and growth disruption): P. gingivalis (T)
[2]; S. mutans
  Organism, effect (morphology, biofilm and growth disruption): S. mutans (F)

## NYAVVSHT [PF-209]
[1]; [4]
  Target(s): C. albicans; also recorded: C. jeikeium; also recorded: C. jejuni
[2]; MRSA
  Organism, effect: MRSA (I)
[2]; P. aeruginosa
  Organism, effect: P. aeruginosa (H)
[2]; S. epidermidis
  Organism, effect: S. epidermidis (C)

## PDAPRTCYHKPILAALSRIVVTDR [PF-524]
[1]
  Target(s) (microorganisms bound by the targeting peptide): S. epidermidis and E. coli and P. aeruginosa and C. albicans and MRSA and S. pneumoniae and E. faecalis and C. jeikeium
[2]; E. coli
  Organism, effect (morphology, biofilm and growth disruption): E. coli (M)
[2]; E. faecalis
  Organism, effect (morphology, biofilm and growth disruption): E. faecalis (C)
[2]; MRSA
  Organism, effect (morphology, biofilm and growth disruption): MRSA (C)
[2]; S. pneumoniae
  Organism, effect (morphology, biofilm and growth disruption): S. pneumoniae (M)

## PF-002 (chain 1 NDDAQ; chain 2 NDDAQ; Peptide with targeting and/or antimicrobial activity)
[1]; [3]
  Target(s): S. epidermidis; also recorded: P. mirabilis; also recorded: C. albicans; also recorded: C. jeikeium; also recorded: C. jejuni
[2]; B. subtilis
  Organism, effect: B. subtilis (R)
[2]; S. pneumoniae
  Organism, effect: S. pneumoniae (H)

## PF-003 (chain 1 MNNWIKVAQISVTVINEVIDIMKEKQNGGK; chain 2 MNNWIKVAQISVTVINEVIDIMKEKQNGGK; Peptide with targeting and/or antimicrobial activity)
[1]; [3]
  Target(s): S. epidermidis and M. luteus and P. mirabilis and C. albicans and MRSA and C. jeikeium
[2]; C. jeikeium
  Organism, effect: C. jeikeium (A)
[2]; M. luteus
  Organism, effect: M. luteus (A)
[2]; MRSA
  Organism, effect: MRSA (R)
[2]; S. epidermidis
  Organism, effect: S. epidermidis (D)

## PF-008 (chain 1 MIEIGSIAYLNGGSKKYNHILNQENR; chain 2 MIEIGSIAYLNGGSKKYNHILNQENR; Peptide with targeting and/or antimicrobial activity)
[1]; [3]
  Target(s): S. epidermidis and M. luteus and MRSA and C. jejuni
[2]; B. subtilis
  Organism, effect: B. subtilis (D)
[2]; C. jejuni
  Organism, effect: C. jejuni (R)

## TT-307 (NGDKKAKEELDKWDEVIKELNIQF; Peptide with targeting and/or antimicrobial activity)
[1]; [3]
  Target(s): F. nucleatum

## TT-308 (GLVIIPNLIALIILFSQVRQQTKDYFSNPKLSSR; Peptide with targeting and/or antimicrobial activity)
[1]; [3]
  Target(s): F. nucleatum

## TT-309 (EPLPLTKYDKKDTEMKKVFKEILAGKVGYEKEEE; Peptide with targeting and/or antimicrobial activity)
[1]; [3]
  Target(s): F. nucleatum

## TT-310 (TKLKKNNKLLSAKKENTLHTKDK; Peptide with targeting and/or antimicrobial activity)
[1]; [3]
  Target(s): F. nucleatum

## TT-311 (AIFDAMHNL; Peptide with targeting and/or antimicrobial activity)
[1]; [3]
  Target(s): S. mutans; also recorded: S. sobrinus

## VYSFLYVLVIVRKLLSMKKRIERL [PF-499]
[1]
  Target(s) (microorganisms bound by the targeting peptide): S. mutans; also recorded: E. coli
